Patent US9089576B2, “Medicament comprising a peptide extract of avocado, which is intended for the treatment and prevention of illnesses that are linked to an immune system deficiency or oxidative stress or skin ageing or dry skin” (LABORATOIRES EXPANSCIENCE, priority 2004, dated 2015)
Values joined by “and” are separate entries in the source; they are usually repeats but may differ in a detail not shown here. Identical values can stand only once. Like-named read-outs stand apart in the source and are kept apart here. Marks after values point to notes of the source that are not given here.

Columns and labels:
[1] = system: Jurkat cell line (human lymphoid cells); assay: Anti-radical activity: intracellular lipid peroxides after H2O2 (C11-fluorine probe, flow cytometry); format: cell-based; conditions: 100 μM BHA; 10 μM H2O2, 30 minutes
Method: The relative lipid peroxide content inside the cells was measured in the basal state and following hydrogen peroxide treatment (H2O2, radical species production stimulation).
This measurement was made using a specific fluorescent probe selected and quantified by means of flow cytometry. This technique offers the advantage of very high specificity by measuring the fluorescence of individual cells, on a large number of cells (10,000 cells analysed per sample).
The cells were prepared in phenol red-free DMEM medium [Merck] with 1.87 mg/ml sodium bicarbonate [Invitrogen] according to the following conditions: • cells treated with H2O2 with the C11-fluorine probe (to quantify lipid peroxides); • cells not treated with H2O2 with C11-fluorine probe.
The probe was incorporated in the cells and the cells were then washed and incubated in the presence or not (standard) of 0.05%, 0.1%, 0.2% and 1% DM avocado peptides or 100 μM BHA (Butylated hydroxyanisole) [Sigma] […]
In the presence of hydrogen peroxide, the C11-fluorine probe integrated in the membranes is oxidised and its fluorescence decreases. Therefore, a decrease in the fluorescence signal conveys an increase in the membrane lipid peroxide content (and conversely).
The between-group comparisons were conducted using the Student's test and the protection percentage (P) was calculated as follows:

oxidised proteins = assay: Oxidised proteins content in replication-aged fibroblast model (INCell Analyzer analysis); format: cell-based, human; conditions: P16 fibroblasts; 150 μM BHA; 72 hours
Method: The study was conducted on normal human dermal fibroblasts at passage 8 (P8, control conditions) and brought to senescence using two separate methods: • accelerated ageing by means of successive replications: fibroblasts at passage 16 (P16), • accelerated ageing by means of H2O2.
The fibroblasts were cultured in DMEM medium [Invitrogen] supplemented with 2 mM L-glutamine [Invitrogen] and 10% Fetal Calf Serum [FCS, Invitrogen].
After incubation, the cells were rinsed and fixed with methanol. The fluorescein-5-thiosemicarbazide probe (20 μM) [Invitrogen] was added for 30 minutes at ambient temperature and, in parallel, the cell nuclei were stained with Hoechst [Sigma]. The image acquisition was performed using the INCell Analyzer™ 1000 unit [GE Healthcare], with the ×20 lens.

[2] = system: Glycosaminoglycan (GAG) synthesis; assay: GAG synthesis by keratinocytes (35S-sulphate incorporation); format: cell-based, human; conditions: 72 hours
Method: (§1) Normal human epidermal keratinocytes (NHEK) were pre-cultured for 24 hours at 37° C., 5% CO2 in calcium-depleted (0.09 mM) SFM medium [Invitrogen] supplemented with 0.25 ng/ml EGF [Invitrogen], 25 μg/ml pituitary extract [Invitrogen] and 25 μg/ml gentamycin [Sigma].
(§2) Two identical runs were prepared to assay, on one hand, hyaluronic acid release/production and, on the other, […] incorporation in the GAG fraction. The group corresponding to the GAG assay was supplemented with ^35S-sulphate [Amersham] after 48 hours of culture (labelling for the last 24 hours).
At the end of the treatment, in the group corresponding to the GAG assay, the incorporated radioactivity was counted and thus the variation in GAG synthesis with respect to the analysed control.
(§3) The between-group comparisons were conducted by means of an analysis of variance using the Dunnett multiple comparison test.

[3] = system: Rat peritoneal mast cells; assay: Tryptase release by mast cells stimulated with calcium ionophore A23187; format: cell-based; conditions: Ca ionophore + 50 μM Quercetin
Method: (reference tryptase release inhibitory molecule).
The cells were then stimulated for 15 minutes by 0.5 μM calcium ionophore A23187 [Millipore] to induce the release of tryptase.
The reaction was stopped by means of centrifugation at 4° C. The tryptase was assayed in the pellets and in the supernatants by means of a commercial kit [Millipore] based on the spectrophotometric detection of the chromophore p-nitroaniline (pNA) after cleavage of the substrate tosyl-gly-pro-lys-pNA by tryptase.

[4] = system: Normal human dermal fibroblasts (NHDF); assay: NHDF proliferation (neutral red incorporation); format: cell-based; conditions: 1 μM retinoic acid; 48 hours; RPMI 1% FCS
Method: (§4) The cell proliferation was evaluated using a neutral red incorporation tests. This test is based on the ability of living cells to incorporate and fix neutral red, a supravital staining agent. Therefore, the staining activity intensity (optical density measurement of cell lysates) reflects the quantity of living cells.
(§5) Normal human epidermal keratinocytes (NHEK), supplied by Cambrex, were cultured in KGM2 culture medium [Cambrex]. Normal human dermal fibroblasts (NHDF), supplied by Cambrex, were cultured in RPMI 1640 medium with GlutaMAX I [Invitrogen] supplemented with 1% or 10% fetal calf serum [FCS, Invitrogen].
(§6) The cells were inoculated in 96-well plates in KGM2 medium for the NHEK and in RPMI medium with 1% FCS for the NHDF.
(§7) (positive reference) in KGM2 medium for the NHEK or in RPMI medium with 1% FCS for the NHDF.
An additional condition was conducted for the NHDF: treatment with complete medium (RPMI with 10% FCS: optimal conditions for NHDF proliferation).
(§8) At the end of treatment, the quantity of cells per well was evaluated by means of a neutral red incorporation test:
(§9) After 3 hours in contact with neutral red, the cells were rinsed and lysed and the optical density proportional to the quantity of living cells was read at 540 nm against the blank (well with no cells).

hyaluronic acid = assay: Hyaluronic acid synthesis/release by keratinocytes (ELISA); format: cell-based, human; conditions: 0.1 μM retinoic acid, 72 hours
Method: as §1, §2
In the group corresponding to the hyaluronic acid assay, at the end of treatment, the culture supernatants were sampled and the hyaluronic acid assayed using a specific modified ELISA test [Biogenic].
as §3

Heme oxygenase 1 = assay: DNA array gene expression, Skinethic reconstructed epidermises: Heme oxygenase 1; format: cell-based; conditions: 1 μM retinoic acid
S100 A7 = assay: DNA array gene expression, Skinethic reconstructed epidermises: S100 A7; format: cell-based; conditions: 1 μM retinoic acid
Desmosglein 1 = assay: DNA array gene expression, Skinethic reconstructed epidermises: Desmosglein 1; format: cell-based; conditions: 1 μM retinoic acid
Thioredoxin = conditions: 1 μM retinoic acid
Method: The gene expression analysis conducted using standard simplified DNA arrays. These mini-chips were produced on a Nylon substrate, spotting specific cDNA of the markers of interest.
The analysis was conducted using proprietary optimised miniaturised technology, based on the use of messenger RNA and ^33P labelling:
At the end of each culture time, the epidermises were rinsed with a PBS solution. The total RNA in the epidermises was then extracted and purified using Tri-Reagent [Sigma] according to a standardised protocol. The quantity and quality of the RNA were then evaluated using an Agilent 2001 bioanalyser.
The mRNA from each culture was then reverse transcribed using oligodT and a deoxyribonucleotide triphosphate labelled with ^33P. Multiple cDNA ‘target’ labelled sequences were produced for each culture. These targets were then hybridised, under optimised conditions, with the excess ‘probe’ cDNA fixed on the membranes. After washing, the relative quantity of labelled target was detected by means of direct counting on PhosphorImager.
The membrane analysis was conducted using ImageQuant TL software [Image Analysis, Amersham Biosciences].

Elafin = assay: DNA array gene expression, Skinethic reconstructed epidermises: Elafin; format: cell-based; conditions: 1 μM retinoic acid
[5] = system: Lysyl oxidase like 2 (LOXL2); assay: DNA array gene expression, Skinethic reconstructed epidermises: LOXL2; format: cell-based; conditions: 1 μM retinoic acid
[6] = system: SPRL6A (epidermal differentiation complex protein like protein); assay: DNA array gene expression, Skinethic reconstructed epidermises: SPRL6A; format: cell-based; conditions: 1 μM retinoic acid
S100 A9 = assay: DNA array gene expression, Skinethic reconstructed epidermises: S100 A9; format: cell-based; conditions: 1 μM retinoic acid
NICE-1 protein = assay: DNA array gene expression, Skinethic reconstructed epidermises: NICE-1; format: cell-based; conditions: 1 μM retinoic acid
S100 A8 = assay: DNA array gene expression, Skinethic reconstructed epidermises: S100 A8; format: cell-based; conditions: 1 μM retinoic acid
[7] = system: Normal human epidermal keratinocytes (NHEK); assay: NHEK proliferation (neutral red incorporation); format: cell-based; conditions: 1 μM retinoic acid; 48 hours
Method: as §4, §5, §6, §7, §8, §9

hBD-2 = assay: Induction of hBD-2 in normal human keratinocytes (ELISA); format: cell-based; conditions: IL-1β 100 ng/ml, 24 hours
Method: Normal human keratinocytes are seeded in 96 well plates (about 20,000 cells/well), in the presence of a specific medium which is enriched in calcium (final concentration 1.3 mM), as formerly described in the publication “Human β-Defensin-2 production in Keratinocytes is regulated by Interleukin-1, Bacteria, and the State of Differentiation”, Alice Y. Liu et al., The Society for Investigative Dermatology, vol. 118, No 2, February 2002, pages 275-281.
After 24 hours incubation, the induction of hBD-2 is assessed with an ELISA technique using a specific antibody (goat polyclonal to human BD2; Abcam; ab9871).

Elastin = assay: Gene expression of Elastin in fibroblasts (real-time RT-PCR); format: cell-based, human; conditions: 24 hours
Method: (§10) The cells were then incubated at 37° C., 5% CO2 for 24 hours for the collagen I and elastin study or 48 hours for the LOX and LOXL study.

MMP1 = assay: Gene expression of MMP1 in PMA-stimulated fibroblasts (real-time RT-PCR); format: cell-based, human; conditions: 1 mg/ml TGF b1 pre-treatment 16 hours, then 10 nM PMA 2 hours
Method: After 16 hours of incubation, the fibroblasts were stimulated for 2 hours with 10 nM PMA (Phorbol Myristate Acetate) [Sigma] in RPMI medium without FCS.
For the study of the expression of MMP1, the inhibition percentage was calculated as follows: […]

Collagen I = assay: Gene expression of Collagen I in fibroblasts (real-time RT-PCR); format: cell-based, human; conditions: 24 hours
Method: as §10

## COc1ccc(O)c(C(C)(C)C)c1 [BHA, Butylated hydroxyanisole]
[1]
  Protection %: 50%
  Relative intracellular quantity of lipid peroxides, % of “oxidised cell” standard: 89** %
Oxidised proteins
  Oxidised proteins (cytoplasmic fluorescence intensity/number of cells): 105 314*
  Oxidised proteins, % vs “senescent cells” (P16): −57%

## [Ca+2] [Calcium, calcium]
[2]; 1.5 mM calcium
  GAG synthesis, 35-5 sulphate incorporation (cpm): 17753 ± 876 cpm
  GAG synthesis, % vs control cells: +59%

## O=c1c(O)c(-c2ccc(O)c(O)c2)oc2cc(O)cc(O)c12 [Quercetin]
[3]
  Tryptase: 44 ± 2 mg/mL
  tryptase release, Inhibition (% vs stimulated cells): −47%

## CC1=C(/C=C/C(C)=C/C=C/C(C)=C/C(=O)O)C(C)(C)CCC1 [retinoic acid]
[4]
  NHDF proliferation, % vs control cells: +20%
  NHDF proliferation, Neutral Red (OD 540): 0.1923 ± 0.00765 OD 540
[2]; 0.1 μM retinoic acid
  GAG synthesis, 35-5 sulphate incorporation (cpm): 13217 ± 421 cpm
Hyaluronic acid
  Hyaluronic acid synthesis/release, % vs control cells: +146%
Hyaluronic acid; culture supernatant
  Hyaluronic acid synthesis/release, HA: 11500 ± 457 ng/mL
Heme oxygenase 1; 6 hours
  % variation with respect to reference: Heme oxygenase 1: −17%
Heme oxygenase 1; 24 hours
  % variation with respect to reference: Heme oxygenase 1: +108%
S100 A7; 6 hours
  % variation with respect to reference: S100 A7: +118%
S100 A7; 24 hours
  % variation with respect to reference: S100 A7: +3240%
Desmosglein 1; 6 hours
  % variation with respect to reference: Desmosglein 1: −40%
Desmosglein 1; 24 hours
  % variation with respect to reference: Desmosglein 1: −95%
Thioredoxin; 6 hours
  % variation with respect to reference: Thioredoxin: −26%
Thioredoxin; 24 hours
  % variation with respect to reference: Thioredoxin: +126%
Elafin; 6 hours
  % variation with respect to reference: Elafin: +13%
Elafin; 24 hours
  % variation with respect to reference: Elafin: −22%
[5]; 6 hours
  % variation with respect to reference: Lysyl oxidase like 2 (LOXL2): −16%
[5]; 24 hours
  % variation with respect to reference: Lysyl oxidase like 2 (LOXL2): −16%
[6]; 6 hours
  % variation with respect to reference: SPRL6A: −41%
[6]; 24 hours
  % variation with respect to reference: SPRL6A: +202%
S100 A9; 6 hours
  % variation with respect to reference: S100 A9: +83%
S100 A9; 24 hours
  % variation with respect to reference: S100 A9: +552%
NICE-1 protein; 6 hours
  % variation with respect to reference: NICE-1 protein: −3%
NICE-1 protein; 24 hours
  % variation with respect to reference: NICE-1 protein: +217%
S100 A8; 6 hours
  % variation with respect to reference: S100 A8: +34%
S100 A8; 24 hours
  % variation with respect to reference: S100 A8: +1347%
[7]
  NHEK proliferation, % vs control cells: +36%
  NHEK proliferation, Neutral Red (OD 540): 0.6981 ± 0.1627 OD 540

## IL-1β: interleukin-1β, positive induction checking for hBD-2
hBD-2
  hBD-2 (OD), Average: 0.106 OD
hBD-2; single replicates
  hBD-2 (OD): 0.103 OD and 0.11 OD and 0.105 OD

## TGF b1: TGFβ1 [R&D Systems], positive control / reference
Elastin; 5 mg/ml TGF b1
  Gene expression of Elastin, Relative quantity standardised with HPRT: 1.59
Elastin; TGFβ1 positive control
  increase in gene expression of elastin: 59%
MMP1
  Gene expression of MMP1, Inhibition (% vs stimulated cells): −66 $$ %
  Gene expression of MMP1, Relative quantity standardised with YWHA2: 0.61
MMP1; listed as TGFβ1
  Gene expression of MMP1, Inhibition (% vs stimulated cells): −66%
Collagen I; 5 mg/ml TGF b1
  Gene expression of Collagen I, Relative quantity standardised with HPRT: 1.74*
Collagen I; TGFβ1 positive control
  increase in gene expression of type I collagen: 74%
